Among the data in PubChem BioAssay (NCI) are TGI and GI50 values, retold here.

Several values for one entry are separate records, joined by “and”; a condition that tells them apart may be missing. Equal entries are not always repeated.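 Step 1: Grow cells in 96-well plates. Step 2: Expose to compound for 48 hours at 5 concentrations. Step 3: Interpolate endpoints linearly; if unreached, use highest concentration. The concentration for 50% growth inhibition is given as GI50. At the TGI there is no net growth.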

Holding throughout (test): NCI tumour cell line growth inhibition, 48 h
Test [1] has as its system MDA-N.
For test [2], the system named is HOP-18 NSCLC.
The subject of test [3] is SNB-78 CNS.
Test [4] has as its system XF 498 CNS.
Test [5] deals with M19-MEL melanoma.
Test [6] relates to DMS 114 small cell lung.
The test system of test [7] is DLD-1 colon.
For test [8], the system named is DMS 273 small cell lung.
The test system of test [9] is RXF-631 renal.

In turn, `O=C1CC(NC(=O)C(F)(F)F)c2c1csc2Br` (centres undefined) had a TGI in test [1] of over 100 µM.
As to `CC(=O)c1cccc(N2COC(C)(C)c3nc4ccccc4n3C2)c1`, the TGI in test [2], in [3], in test [4], in [5], in test [6] and in [7] was over 100 µM throughout. The same compound returned a TGI in test [8] of over 100 µM.
On to `CCN(CC)c1cc2c3c(c1)CCCN3CCC2`, for which the TGI in test [1] was over 10 µM.
For the compound `O=C(Nc1cc(Cl)c(Cl)cc1Cl)C(=O)C1C=CCS1(=O)=O` (centres undefined), the TGI in [2], in test [3], in [5], in [6], in test [7] and in test [8] was over 100 µM each time.
Take `O=Cc1ccc(-c2cc(C=O)c(-c3cccs3)[nH]2)s1`: in [1], the GI50 is 33.7 µM; the TGI is 75 µM and > 100 µM.
Turning to `COc1ccccc1N1C(=O)/C(=C/c2ccc(N(CCC#N)CCC#N)cc2C)N=C1c1cc([N+](=O)[O-])ccc1Cl`, the TGI in [2] is over 100 µM; in [3], over 100 µM; in test [4] it was over 100 µM; in [5], 56.3 µM; in test [6], over 100 µM; in test [8] it was over 100 µM.
`CN1CCN(CCCN)CC1` returned a TGI in [1] of over 100 µM.
Turning to `CCN(CC)CC(O)CNc1ccc(NCC2CO2)c2c1C(=O)c1ccccc1C2=O` (centres undefined), the TGI in test [2] was 37 µM; in [9], 2.24 µM; in [3], 2.6 µM; in [1], 2.31 µM; in [5], 0.577 µM; in [6], 4.43 µM. Also, the values for the TGI in test [7] and in [8] were 10.7 µM and 1.68 µM, respectively. Moreover, in [1], the GI50 is 0.257 µM.
As for `COc1ccc([N+]2=NC(c3ccc([N+](=O)[O-])cc3)=NN(c3ccccc3)C2)cc1`, the TGI in [3], in test [4], in test [6], in test [7] and in [8] was over 100 µM in each case.
Turning to `CCC(Sc1cc(Cl)c(C)cc1S(=O)(=O)Nc1nc(N)nc(N(C)C)n1)C(=O)O` (centres undefined), the TGI in test [1] was over 10 µM.
Take `CCOC(=O)Nc1nc2ccc(Cn3cccc3)cc2[nH]1`: the TGI is over 100 µM in test [2]; over 100 µM in [9]; over 100 µM in [3]; over 85 µM in test [4]; 0.965 µM in test [1]; over 100 µM in test [5]. In addition, the TGI in test [6], in [7] and in [8] was over 100 µM in each case.
For the compound `CO[C@@H]1/C=C\C=C(/C)C(=O)NC2=CC(=O)C(NCCN(C)C)=C(C[C@@H](C)C[C@@H](OC)[C@@H](O)[C@H](C)/C=C(\C)[C@H]1OC(N)=O)C2=O`, the TGI in test [1] is 1.92 µM and 2.18 µM.
`CCN(CC)CCC(=O)NC1c2ccc(Cl)cc2Oc2c(C)cccc21` (centres undefined) had a TGI in test [1] of 32.3 µM.
On to `C=CC1(C(=O)O)CCC(C(C)(C)C)CC1` (centres undefined), for which the TGI in [2], in [9], in test [3], in test [4], in [5] and in [6] was over 100 µM each time. Besides, the TGI in test [7] and in test [8] was over 100 µM in each case.
`CN(C)C=Nc1cccc2nsnc12` registered a TGI in test [1] of over 100 µM.
With `Cc1c(NC(=O)C(C)(C)Br)c(=O)oc2c(C)c3occc(=O)c3cc12`, the TGI is over 100 µM in test [9]; 98.6 µM in test [4]; over 100 µM in [6]; over 100 µM in [7]; over 100 µM in test [8].
For the compound `Cc1cc(Cl)ccc1NC(=O)CCCC(=O)C1CCCC1=O` (centres undefined), the TGI in test [2], in test [3], in test [4], in test [5], in test [6] and in [7] was over 100 µM in each case. The same compound showed a TGI in test [8] of over 100 µM.
`O=[N+]([O-])c1cccc(C2N3CCCCC3[C@@H]3c4[nH]c5ccccc5c4CCN23)c1` (some centres undefined): the TGI was over 100 µM in [2]; 26.1 µM in test [3]; 27 µM in [4]; 25 µM in [5]; 22.2 µM in [6]; 29.2 µM in [7]. In test [8], this compound had a TGI of 26 µM.
In turn, `CC1(C)C2CCC3=C(CCC4(C)C5C[C@](C)(C(=O)O)CC[C@]5(C)CC[C@]34C)[C@@]2(C)CC[C@@H]1O` (some centres undefined) gave a TGI in test [1] of 37.8 µM.
In test [1], `CC(=O)C(=[N+]=[N-])C(=O)NCC#N` yielded a TGI of over 10 µM.
For the compound `OC1(CCc2ccccc2)COC(C(F)(F)F)(C(F)(F)F)C1` (centres undefined), the TGI in [1] was over 100 µM.
For the compound `Cc1[nH]c2ccccc2c1C1Cc2ccccc2N1C(=O)/C=C\C(=O)O` (centres undefined), the TGI in [9] was over 100 µM; in [3], over 100 µM; in test [4], 47.8 µM; in [5], over 100 µM; in test [6], 64.4 µM; in test [7], over 100 µM. This compound also displayed a TGI in [8] of over 100 µM.
As to `COC(=O)C1C(C(=O)OC)C2(OC)c3ccccc3-c3ccccc3C12` (centres undefined), the TGI in test [2] was over 100 µM; in test [9] it was over 100 µM; in [5] it was over 100 µM; in [6], 87.9 µM; in test [7], over 100 µM; in test [8] it was 43 µM.
